Converted amounts (≈) assume the structure as drawn. “Also recorded” adds a separate entry of the source. Where two headings read alike, the source gives them in different places. Where no end group is shown, it is not given here.

One assay has as its system E. coli ATCC25922. It is filed as cell-based. The conditions noted are these: ATCC25922, 2 h. As to the method:
(§1) Radial diffusion assay using double-layered agarose involved incubating ~ 2 x 10^6 mid-log phase bacterial cells with 50 nmol of peptide solution in nutrient-poor agarose at 37°C for 3 h. […] Minimum inhibitory concentration (MIC) was determined by broth microdilution method in which ~10^4 bacterial cells in 100 µl of 10 mM phosphate buffer were incubated for with serially diluted peptide solution in a 96-well microtiter plate for 2 hrs at 37°C. Addition of LB medium subsequently was used to ascertain the minimum peptide concentration sufficient to prevent bacterial growth, observable at OD600.

Assay [1] relates to E. coli BL21λD3. It is filed as cell-based. The settings on record: BL21λD3, 2 h. Here is the method:
as §1

Assay [2] deals with different bacterial strains. Put plainly: Antimicrobial activity against different bacterial strains (radial diffusion, MIC). It is filed as cell-based. As to the method: as §1
For assay [3], the system named is E. coli BL21λD3. Put plainly: Radial diffusion assay, E. coli BL21λD3. It is filed as cell-based. The conditions noted are these: 50 nmol of peptide, 37°C for 3 h. Here is the method: as §1
For assay [4] the following is noted: ref [20]; cited from earlier work. From the text: (§2) It is now well established that antimicrobial peptides are an important component of the innate defenses in a wide variety of species. They display broad spectrum of activity, rapid killing kinetics, and a lower incidence of generating resistance and are being increasingly explored as an alternative to conventional antibiotics especially as more and more drug resistant strains emerge. As most of these peptides kill microorganisms rapidly as compared to other antibiotics, development of resistance to them also is less likely. One of the large classes of antimicrobial pepti ...

For the next assay, the system named is DNA. The settings on record: ref [17],[18]; cited from earlier work.
Description: as §2

In a further assay the test system is calmodulin. The conditions noted are these: ref [19]; cited from earlier work.
Description: as §2

The subject of a further assay is topoisomerase I. The conditions noted are these: ref [19]; cited from earlier work.
Description: as §2

The subject of a further assay is mAb 6C6D7. Put plainly: SPR binding of K-tritrpticin (immobilised) to mAb 6C6D7. On the set-up: species or system BALB/c mice. The settings on record: for ka (rate of association) / kd (rate of dissociation): BIAcore 2000, CM4 chip, bivalent model; for Kd: KD = kdiss/kass, read-out: KD (dissociation constant); for ΔGeq (Gibbs free energy at equilibrium): ΔGeq = RTlnKD. As to the method: (§3) Affinity measurements were based on surface plasmon resonance (SPR) technique, carried out on BIAcore 2000 (GE Healthcare). K-tritrpticin was amine coupled to a CM4 chip (~6 resonance units) and mAb 6C6D7 was injected as analyte with a 6 min association/15 min dissociation phase. Regeneration was achieved by 0.1 N HCl. Interaction curves were simultaneously fit using bivalent model in BIAevaluation program to determine KD = kdiss/kass and ΔGeq = RTlnKD, R is the universal gas constant and T is the temperature in kelvin. The temperature sensitivity of Ag association and dissociation rates of the Ab was assessed on the basis of the Arrhenius plots. The slopes of the Arrhenius plots provide the activation energy (Ea) for the corresponding steps. The individual thermodynamic parameters were calculated using the following equations: ΔHa/d = Ea-RT; ln(ka/d/T) = -ΔHa/d/RT + […] + ln(K'/h). In these equations K' represents Boltzmann’s constant and h the Planck’s constant. Using these equations, the corresponding values of ΔH, T∆S, and ΔG for association and dissociation as well as the corresponding net values at equilibrium were calculated.
For orientation: In SPR one partner is held on a chip, and binding of the other changes the refractive index at the surface.

Assay [5] concerns the target T1, K-tritrpticin (pig).
T1 sequence (peptide): KVRRFPWWWPFLRR
Put plainly: SPR; BIAcore 2000; K-tritrpticin amine coupled to a CM4 chip (~6 RU), mAb 6C6D7 as analyte, 6 min association/15 min dissociation; bivalent model; 15 C.

The target of assay [6] is T1, K-tritrpticin (pig). Put plainly: SPR; BIAcore 2000; K-tritrpticin amine coupled to a CM4 chip (~6 RU), mAb 6C6D7 as analyte, 6 min association/15 min dissociation; bivalent model; 20 C.
Assay [7] has as its target T1, K-tritrpticin (pig). Put plainly: SPR; BIAcore 2000; K-tritrpticin amine coupled to a CM4 chip (~6 RU), mAb 6C6D7 as analyte, 6 min association/15 min dissociation; bivalent model; 30 C.
Assay [8] has as its target T1, K-tritrpticin (pig). Put plainly: SPR; BIAcore 2000; K-tritrpticin amine coupled to a CM4 chip (~6 RU), mAb 6C6D7 as analyte, 6 min association/15 min dissociation; bivalent model; 35 C.
Assay [9] has as its target T1, K-tritrpticin (pig). Put plainly: SPR; BIAcore 2000; K-tritrpticin amine coupled to a CM4 chip (~6 RU), mAb 6C6D7 as analyte (62.5-1000 nM), 6 min association/15 min dissociation; bivalent model; 25 C.
A short description of assay [10]: ELISA of hybridoma clones on tritrpticin. It is filed as binding. The settings on record: culture supernatant screening. From the text:
(§4) The sera from the immunized mouse were checked for anti-tritrpticin antibody titers. The highest responder of the group of mice was then sacrificed to harvest B cells from the spleen. The cells were allowed to fuse with the SP2/0 myeloma cells, maintained in log phase, in the presence of PEG1600 (Sigma-Aldrich). The cells were subjected to hypoxanthine-aminopterin-thymidine (Sigma) selection in DMEM (PAA Laboratories GmbH, Austria) in which only the hybrid cells are able to survive and grow. The supernatant of the wells with colonies of hybrid cells was screened for the presence of peptide recognizing Ab by ELISA, in which tritrpticin was used as coating antigen. The positive clones were further subcloned using limited dilution technique to ensure monoclonality.
(§5) The binding of the Ab from cell supernatant or in purified form, to the various peptide ligands was assayed by indirect ELISA. The peptide analogs were used as coating Ag at a concentration of 10 µg per well on 96-well immunosorbent plates. […] HRP –labeled goat anti-mouse IgG was used as secondary Ab (Jackson Immuno Research) and o-phenylenediamine (Sigma) and H2O2 were used as peroxidase substrate. Absorbance was recorded at 490 nm after addition of 1 N H2SO4.
(In general: ELISA stands for enzyme-linked immunosorbent assay.)

The next assay concerns BSA. Put plainly: ELISA of hybridoma clones on BSA (negative control). It is filed as binding.
Description: as §4, §5

Assay [11] in a line: ELISA of hybridoma clones on indolicidin. It is filed as binding.
Description: as §4, §5

The nature of assay [12]: SPR binding of mAb 6C6D7 (analyte) to peptide antigen K-tritrpticin. Here is the method:
as §3

Setting [13] is: equilibrium, all temperatures 15-35 °C, Arrhenius plot.

Turning to YHDRPPPRPFKH-OH [12PhD1], the MIC against E. coli ATCC25922 and with E. coli BL21λD3 [1] was 400 µM in each case. In addition, the “antimicrobial activity compared with tritrpticin” value in [2] is listed as “lower though qualitatively similar broad spectrum antimicrobial activity as tritrpticin”. In addition, in assay [2] (radial diffusion and MIC, bacterial strains), the antibiotic activity result is given as “broad spectrum antibiotic activity”.
“EHGTPPRVMSSM [unrelated peptide used as negative control, reference compound]”: the “formation of clearance zone” value was “did not led to the formation of clearance zone” with E. coli BL21λD3 [3] and “did not led to the formation of clearance zone” in assay [2] (50 nmoles of peptide, radial diffusion, different bacterial strains).
On to `CC(C)C[C@H](NC(=O)[C@H](Cc1ccccc1)NC(=O)[C@@H]1CCCN1C(=O)[C@H](Cc1c[nH]c2ccccc12)NC(=O)[C@H](Cc1c[nH]c2ccccc12)NC(=O)[C@H](Cc1c[nH]c2ccccc12)NC(=O)[C@@H]1CCCN1C(=O)[C@H](Cc1ccccc1)NC(=O)[C@H](CCCNC(=N)N)NC(=O)[C@H](CCCNC(=N)N)NC(=O)[C@@H](N)C(C)C)C(=O)N[C@@H](CCCNC(=N)N)C(=O)N[C@@H](CCCNC(=N)N)C(=O)O` [Tritrpticin], for which the MIC in the assay with E. coli ATCC25922 and against E. coli BL21λD3 [1] was 3.12 µM (≈ 5.94 µg/mL) each time.
“ILPWKWPWWPWRR [indolicidin, closely related cathelicidin peptide indolicidin ([…])]”: in [4], the “interaction with ATP” value is “interaction”. In addition, the “interaction with DNA” value in the assay with DNA is reported as “interaction”. Also, the interaction with calmodulin result with calmodulin is listed as “interaction”. Further, the “interaction with topoisomerase I” value in the assay with topoisomerase I is on record as “interaction”.
With “K-tritrpticin: tritrpticin with lysine introduced at the N terminus (KVRRFPWWWPFLRR)”, the “ka (rate of association)” value in the assay with mAb 6C6D7 (15 °C) is 24400 M⁻¹ s⁻¹; in the assay on mAb 6C6D7 (20 °C) it was 37900 M⁻¹ s⁻¹; with mAb 6C6D7 (25 °C) it was 39100 M⁻¹ s⁻¹; with mAb 6C6D7 (35 °C), 54100 M⁻¹ s⁻¹. Moreover, the “kd (rate of dissociation)” value came to 0.00515 s⁻¹ at mAb 6C6D7 (15 °C); 0.0115 s⁻¹ at mAb 6C6D7 (20 °C); 0.0137 s⁻¹ at mAb 6C6D7 (25 °C); 0.0231 s⁻¹ at mAb 6C6D7 (30 °C); 0.0343 s⁻¹ at mAb 6C6D7 (35 °C). Moreover, the Kd on mAb 6C6D7 (15 °C) is 0.211 µM; at mAb 6C6D7 (20 °C), 0.303 µM; at mAb 6C6D7 (25 °C), 0.35 µM; at mAb 6C6D7 (30 °C) it was 0.545 µM; at mAb 6C6D7 (35 °C) it was 0.634 µM. The “ΔGeq (Gibbs free energy at equilibrium)” value with mAb 6C6D7 (15 °C) is -36.8 kJ/mol; in the assay on mAb 6C6D7 (20 °C) it was -36.6 kJ/mol; in the assay with mAb 6C6D7 (25 °C), -36.8 kJ/mol; in the assay with mAb 6C6D7 (30 °C), -36.3 kJ/mol; in the assay on mAb 6C6D7 (35 °C), -36.5 kJ/mol.

B1: anti-tritrpticin monoclonal antibody 6C6D7 (antibody, V domains shown)
VH: VELQESGPELVKPGASVKVSCKASGYSSTDYNMNWVKQSHGKSLEWIGSFDPYNGGITYNQKFEGKATLTVDKSSNTAFMHLNSLTSEDSAVYYCAKYFGYDAWFAYWGQGTLVTVST
VL: FIVMTQTPASLAVSLGQRATISCKASQSVDYGGDSYLNWYQQKPGQPPKLLIYAASNLESGIPARFSGSGSGTDFTLNIHPVEEEDAATYFCQQSHEDPLTFGAGTKLELR
Turning to B1, the Kd with K-tritrpticin (pig) [5] came to 0.211 µM; with K-tritrpticin (pig) [6], 0.303 µM; with K-tritrpticin (pig) [7], 0.545 µM; in the assay with K-tritrpticin (pig) [8], 0.634 µM; with K-tritrpticin (pig) [9] it was 0.35 µM. Besides, the koff (as a rule, the rate constant with which the complex falls apart) with K-tritrpticin (pig) [5] turned out to be 0.00515 s⁻¹; with K-tritrpticin (pig) [6], 0.0115 s⁻¹; with K-tritrpticin (pig) [7] it was 0.0231 s⁻¹; in the assay with K-tritrpticin (pig) [8], 0.0343 s⁻¹; with K-tritrpticin (pig) [9], 0.0137 s⁻¹. Besides, the kon (as a rule, the second-order rate constant of association) was found to be 24400 M⁻¹ s⁻¹ with K-tritrpticin (pig) [5]; 37900 M⁻¹ s⁻¹ with K-tritrpticin (pig) [6]; 44200 M⁻¹ s⁻¹ with K-tritrpticin (pig) [7]; 54100 M⁻¹ s⁻¹ in the assay with K-tritrpticin (pig) [8]; 39100 M⁻¹ s⁻¹ with K-tritrpticin (pig) [9].

B2: 6C6: anti-tritrpticin hybridoma clone, subcloned as 6C6D7 (antibody, V domains shown)
VH: VELQESGPELVKPGASVKVSCKASGYSSTDYNMNWVKQSHGKSLEWIGSFDPYNGGITYNQKFEGKATLTVDKSSNTAFMHLNSLTSEDSAVYYCAKYFGYDAWFAYWGQGTLVTVST
VL: FIVMTQTPASLAVSLGQRATISCKASQSVDYGGDSYLNWYQQKPGQPPKLLIYAASNLESGIPARFSGSGSGTDFTLNIHPVEEEDAATYFCQQSHEDPLTFGAGTKLELR
Regarding B2, the “binding to tritrpticin (ELISA)” value in [10] is listed as “significant binding”. In addition, in the assay on BSA, the “binding to BSA (ELISA)” value is “negligible binding; also recorded: not able to bind”. Further, in assay [11], the “binding to indolicidin (ELISA)” value was “not able to bind”.

B3: mAb 6C6D7: anti-tritrpticin monoclonal antibody, 6C6 subcloned as 6C6D7 (antibody, V domains shown)
VH: VELQESGPELVKPGASVKVSCKASGYSSTDYNMNWVKQSHGKSLEWIGSFDPYNGGITYNQKFEGKATLTVDKSSNTAFMHLNSLTSEDSAVYYCAKYFGYDAWFAYWGQGTLVTVST
VL: FIVMTQTPASLAVSLGQRATISCKASQSVDYGGDSYLNWYQQKPGQPPKLLIYAASNLESGIPARFSGSGSGTDFTLNIHPVEEEDAATYFCQQSHEDPLTFGAGTKLELR
As to B3, in assay [12] (15 °C to 35 °C), the “fold decrease in affinity (KD)” value was determined as 3 fold, the “fold increase in kdiss” value is “approximately 7 fold” and the “fold increase in the association rate constant” value is listed as 2 fold. In assay [12] (25 °C), this molecule gave a kass of 39100 M⁻¹ s⁻¹ and a kdiss of 0.0137 s⁻¹. For the same molecule, the Kd in assay [12] (25 °C, read-out: affinity (KD)) was determined as 0.35 µM. Moreover, in [12] (Arrhenius plots, 15-35 °C), the “temperature sensitivity of dissociation phase” value was “more sensitive to variation in temperature in comparison with the association phase”. For the same molecule, in assay [12] (setting [13]), the “enthalpy contribution to binding (ΔH)” value is “marginally unfavorable” and the “entropy contribution to binding (TΔS)” value is on record as “highly favorable”.

The values above are taken from publication PMC3782441, “Putative Bioactive Motif of Tritrpticin Revealed by an Antibody with Biological Receptor-Like Properties” (PLoS ONE, 2013).
